Source: ChEMBL document CHEMBL1201862, “PubChem BioAssay data set” (2004)
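Growth conditions: 96-well plates. Treatment: test compound, 48 hours, 5 concentrations. Analysis: linear interpolation between bracketing concentrations; unreached endpoints set to highest concentration. GI50 is the concentration that inhibits growth by half.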 Active and inactive are the calls of the source. Cut-off read from the data, not from the text of the source: active = GI50 up to about 1.1 µM and inactive = higher.

Columns and labels:
Assay in all cases: DTP human tumour cell line panel, 48 h
COLO 205 = system: COLO 205
HCT-15 = system: HCT-15
LOX IMVI = system: LOX IMVI
CAKI-1 = system: CAKI-1
UACC-257 = system: UACC-257
HCC 2998 = system: HCC 2998
HT-29 = system: HT-29
MDA-MB-231 = system: MDA-MB-231
U-251 = system: U-251
SF-539 = system: SF-539
KM12 = system: KM12
OVCAR-4 = system: OVCAR-4
HOP-62 = system: HOP-62
A549 = system: A549
ACHN = system: ACHN
Malme-3M = system: Malme-3M
SNB-75 = system: SNB-75
SNB-19 = system: SNB-19
OVCAR-8 = system: OVCAR-8
SK-OV-3 = system: SK-OV-3
SW-620 = system: SW-620
HL-60 = system: HL-60
MDA-MB-435 = system: MDA-MB-435
UACC-62 = system: UACC-62
OVCAR-3 = system: OVCAR-3
MOLT-4 = system: MOLT-4
IGROV-1 = system: IGROV-1
OVCAR-5 = system: OVCAR-5
K562 = system: K562
NCI/ADR-RES = system: NCI/ADR-RES
RXF 393 = system: RXF 393
TK-10 = system: TK-10
PC-3 = system: PC-3
SK-MEL-5 = system: SK-MEL-5
SK-MEL-2 = system: SK-MEL-2
T47D = system: T47D
UO-31 = system: UO-31
CCRF-CEM = system: CCRF-CEM
HCT-116 = system: HCT-116
DU-145 = system: DU-145
SK-MEL-28 = system: SK-MEL-28
MCF7 = system: MCF7
EKVX = system: EKVX
NCI-H460 = system: NCI-H460
SF-295 = system: SF-295
786-0 = system: 786-0
A498 = system: A498
RPMI-8226 = system: RPMI-8226
SF-268 = system: SF-268
SN12C = system: SN12C
HOP-92 = system: HOP-92
BT-549 = system: BT-549
MDA-N = system: MDA-N
M14 = system: M14
NCI-H522 = system: NCI-H522
Hs-578T = system: Hs-578T
NCI-H226 = system: NCI-H226
NCI-H23 = system: NCI-H23

SMILES: c1cnc(N2CCN(Cc3c[nH]c4ccccc34)CC2)nc1
- GI50 (COLO 205): 25.4 µM (inactive)
- GI50 (HCT-15): 72.9 µM
- GI50 (LOX IMVI): 45.8 µM (inactive)
- GI50 (CAKI-1): 28.2 µM (inactive)
- GI50 (UACC-257): 28.8 µM (inactive)
- GI50 (HCC 2998): 18.6 µM (inactive)
- GI50 (HT-29): 56.6 µM (inactive)
- GI50 (MDA-MB-231): 37.2 µM (inactive)
- GI50 (U-251): 37.1 µM (inactive)
- GI50 (SF-539): 25.6 µM (inactive)
- GI50 (KM12): 20.4 µM (inactive)
- GI50 (OVCAR-4): 52 µM (inactive)
- GI50 (HOP-62): 56.1 µM (inactive)
- GI50 (A549): 80.4 µM (inactive)
- GI50 (ACHN): 27.8 µM (inactive)
- GI50 (Malme-3M): 43.4 µM (inactive)
- GI50 (SNB-75): 89.9 µM (inactive)
- GI50 (SNB-19): > 100 µM (inactive)
- GI50 (OVCAR-8): 95.9 µM (inactive)
- GI50 (SK-OV-3): > 100 µM (inactive)
- GI50 (SW-620): > 100 µM (inactive)
- GI50 (HL-60): 51.6 µM (inactive)
- GI50 (MDA-MB-435): 31 µM (inactive)
- GI50 (UACC-62): 45.4 µM (inactive)
- GI50 (OVCAR-3): 52.2 µM (inactive)
- GI50 (MOLT-4): 36.6 µM (inactive)
- GI50 (IGROV-1): > 100 µM (inactive)
- GI50 (OVCAR-5): > 100 µM (inactive)
- GI50 (K562): 40 µM (inactive)
- GI50 (NCI/ADR-RES): 52.8 µM (inactive)
- GI50 (RXF 393): 41.9 µM (inactive)
- GI50 (TK-10): 22.9 µM (inactive)
- GI50 (PC-3): 23.5 µM (inactive)
- GI50 (SK-MEL-5): 36.2 µM (inactive)
- GI50 (SK-MEL-2): 13.3 µM (inactive)
- GI50 (T47D): 22.6 µM (inactive)
- GI50 (UO-31): 38.5 µM (inactive)
- GI50 (CCRF-CEM): 50.1 µM (inactive)
- GI50 (HCT-116): 26.2 µM (inactive)
- GI50 (DU-145): 23.9 µM (inactive)
- GI50 (SK-MEL-28): > 100 µM (inactive)
- GI50 (MCF7): 16.9 µM (inactive)
- GI50 (EKVX): 85.3 µM (inactive)
- GI50 (NCI-H460): 31.3 µM (inactive)
- GI50 (SF-295): 38.3 µM (inactive)
- GI50 (786-0): 14.3 µM (inactive)
- GI50 (A498): 28.7 µM (inactive)
- GI50 (RPMI-8226): 11.7 µM (inactive)
- GI50 (SF-268): 74.5 µM (inactive)
- GI50 (SN12C): 42.1 µM (inactive)
- GI50 (HOP-92): > 100 µM (inactive)
- GI50 (BT-549): 42.1 µM (inactive)
- GI50 (MDA-N): 25.1 µM (inactive)
- GI50 (M14): 45.4 µM (inactive)
- GI50 (NCI-H522): > 100 µM (inactive)
- GI50 (Hs-578T): > 100 µM (inactive)
- GI50 (NCI-H226): 58.7 µM (inactive)
- GI50 (NCI-H23): 93.5 µM (inactive)
